Data as given in US11524968B2, “Heterocyclic compound as a protein kinase inhibitor” (HK inno.N Corporation, priority 2017, dated 2022).

molecular target: JAK1 (Homo sapiens (Human), UniProt P23458); experiment: Analysis of JAK1 activity inhibition ability (ADP-Glo Kinase Assay); format: biochemical; conditions: JAK1 enzyme, ADP-Glo luminescence, ATP 250 uM, IRS-itide substrate, 30° C. 40 minutes; read-out: IC50
Outline: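 JAK1 enzyme, IRS-itide substrate (40 ng/mL) and 250 uM ATP, both as prepared in kinase buffer (Tris-HCl pH 7.5, MgCl2, BSA, DTT), reacted with compound 40 min at 30 °C. ADP formed was detected by ADP-Glo luminescence; IC50 is the concentration giving 50% inhibition versus control.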

JAK1, sequence (P23458 whole entry): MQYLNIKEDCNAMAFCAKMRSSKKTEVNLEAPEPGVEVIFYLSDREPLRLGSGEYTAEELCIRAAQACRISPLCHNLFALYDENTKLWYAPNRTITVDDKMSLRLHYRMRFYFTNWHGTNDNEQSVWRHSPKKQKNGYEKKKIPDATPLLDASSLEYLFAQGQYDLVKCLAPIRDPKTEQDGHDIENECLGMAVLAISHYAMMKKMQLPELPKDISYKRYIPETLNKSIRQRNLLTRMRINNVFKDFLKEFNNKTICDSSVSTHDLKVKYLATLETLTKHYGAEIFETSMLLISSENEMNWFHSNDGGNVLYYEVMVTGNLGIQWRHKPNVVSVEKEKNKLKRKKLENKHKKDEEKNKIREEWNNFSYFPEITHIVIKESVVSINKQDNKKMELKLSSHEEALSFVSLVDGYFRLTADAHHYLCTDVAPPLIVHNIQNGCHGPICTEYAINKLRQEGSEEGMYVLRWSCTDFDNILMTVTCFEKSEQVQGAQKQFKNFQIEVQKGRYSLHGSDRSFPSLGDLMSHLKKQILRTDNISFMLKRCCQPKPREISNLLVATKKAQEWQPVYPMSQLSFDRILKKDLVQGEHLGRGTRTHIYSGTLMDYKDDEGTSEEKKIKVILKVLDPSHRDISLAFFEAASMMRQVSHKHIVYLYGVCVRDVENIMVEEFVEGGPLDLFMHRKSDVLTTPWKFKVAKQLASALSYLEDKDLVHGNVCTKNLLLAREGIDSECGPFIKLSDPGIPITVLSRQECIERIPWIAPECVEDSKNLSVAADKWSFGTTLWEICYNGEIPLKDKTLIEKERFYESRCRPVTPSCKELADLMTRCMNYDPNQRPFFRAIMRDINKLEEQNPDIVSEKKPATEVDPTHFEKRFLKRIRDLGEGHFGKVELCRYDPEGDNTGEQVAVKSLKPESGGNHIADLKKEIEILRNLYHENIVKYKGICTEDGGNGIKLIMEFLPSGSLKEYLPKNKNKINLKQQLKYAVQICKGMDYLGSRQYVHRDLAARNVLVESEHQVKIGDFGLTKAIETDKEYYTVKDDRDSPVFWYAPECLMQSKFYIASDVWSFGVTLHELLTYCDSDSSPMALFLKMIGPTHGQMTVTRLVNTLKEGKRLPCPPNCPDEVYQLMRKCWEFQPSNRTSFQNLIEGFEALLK

O=C(Nc1cc(-c2ccc(C(=O)N3CCSCC3)cc2)c2cc[nH]c2n1)C1CC1 [Example 521, N-(4-(4-(thiomorpholine-4-carbonyl)phenyl)-1H-pyrrolo[2,3-b]pyridin-6-yl)cyclopropanecarboxamide] and O=C(Nc1cc(-c2ccc(NC(=O)N3CCOCC3)cc2)c2cc[nH]c2n1)C1CC1 [Example 432, N-(4-(6-(cyclopropanecarboxamido)-1H-pyrrolo[2,3-b]pyridin-4-yl)phenyl)morpholine-4-carboxamide] fall in the same range of IC50: 20 to 200 nM for the first, 20 to 200 nM for the second.

CC1CN(C(=O)c2ccncc2F)CC=C1c1cc(NC(=O)C2CC2)nc2[nH]ccc12 (centres unmarked) [Example 314, N-(4-(1-(3-fluoroisonicotinoyl)-3-methyl-1,2,3,6-tetrahydropyridin-4-yl)-1H-pyrrolo[2,3-b]pyridin-6-yl)cyclopropanecarboxamide] and CC1CN(C(=O)c2c(Cl)cncc2Cl)CC=C1c1cc(NC(=O)C2CC2)nc2[nH]ccc12 (centres unmarked) [Example 374, N-(4-(1-(3,5-dichloroisonicotinoyl)-3-methyl-1,2,3,6-tetrahydropyridin-4-yl)-1H-pyrrolo[2,3-b]pyridin-6-yl)cyclopropanecarboxamide] fall in the same range of IC50: 20 to 200 nM for the first, 20 to 200 nM for the second.

N#CCC1(CS(=O)(=O)Nc2ccc(-c3cc(NC(=O)C4CC4)nc4[nH]ccc34)cc2)CC1 [Example 89, N-(4-(4-(((1-(cyanomethyl)cyclopropyl)methyl)sulfonamido)phenyl)-1H-pyrrolo[2,3-b]pyridin-6-yl)cyclopropanecarboxamide] and CCCS(=O)(=O)Nc1ccc(-c2cc(NC(=O)C3CC3)nc3[nH]ccc23)cc1 [Example 5, N-(4-(4-(propylsulfonamido)phenyl)-1H-pyrrolo[2,3-b]pyridin-6-yl)cyclopropanecarboxamide] cannot be ordered by IC50: less than 20 nM for the first, less than 20 nM for the second.

O=C(Nc1cc(C2=CCN(C(=O)c3ccoc3)CC2)c2cc[nH]c2n1)C1CC1 [Example 278, N-(4-(1-(furan-3-carbonyl)-1,2,3,6-tetrahydropyridin-4-yl)-1H-pyrrolo[2,3-b]pyridin-6-yl)cyclopropanecarboxamide] and O=C(Nc1cc(C2=CCN(C(=O)CC(F)(F)F)CC2)c2cc[nH]c2n1)C1CC1 [Example 253, N-(4-(1-(3,3,3-trifluoropropanoyl)-1,2,3,6-tetrahydropyridin-4-yl)-1H-pyrrolo[2,3-b]pyridin-6-yl)cyclopropanecarboxamide] fall in the same range of IC50: 20 to 200 nM for the first, 20 to 200 nM for the second.

First: CCCCOc1ccc(-c2cc(NC(=O)C3CC3)nc3[nH]ccc23)cc1 [Example 643, N-(4-(4-butoxyphenyl)-1H-pyrrolo[2,3-b]pyridin-6-yl)cyclopropanecarboxamide]
Second: O=C(Nc1cc(-c2ccc(NCC3CC3)cc2)c2cc[nH]c2n1)C1CC1 [Example 470, N-(4-(4-((cyclopropylmethyl)amino)phenyl)-1H-pyrrolo[2,3-b]pyridin-6-yl)cyclopropanecarboxamide]
The IC50 of the first is higher: greater than 200 nM for the first, 20 to 200 nM for the second. The second is the more potent here.

Compared with O=C(Nc1cc(C2=CCN(C(=O)Cc3ccc(F)c(F)c3)CC2)c2cc[nH]c2n1)C1CC1 [Example 276, N-(4-(1-(2-(3,4-difluorophenyl)acetyl)-1,2,3,6-tetrahydropyridin-4-yl)-1H-pyrrolo[2,3-b]pyridin-6-yl)cyclopropanecarboxamide], N#CCCC(=O)N1CC=C(c2cc(NC(=O)C3CC3)nc3[nH]ccc23)C1 [Example 427, N-(4-(1-(3-cyanopropanoyl)-2,5-dihydro-1H-pyrrol-3-yl)-1H-pyrrolo[2,3-b]pyridin-6-yl)cyclopropanecarboxamide] is higher in IC50: 20 to 200 nM for the first, greater than 200 nM for the second.

First: CS(=O)(=O)N1CCN(C(=O)Cc2ccc(-c3cc(NC(=O)C4CC4)nc4[nH]ccc34)cc2)CC1 [Example 542, N-(4-(4-(2-(4-(methylsulfonyl)piperazin-1-yl)-2-oxoethyl)phenyl)-1H-pyrrolo[2,3-b]pyridin-6-yl)cyclopropanecarboxamide]
Second: CC(C)(C)OC(=O)N1CCC(c2cc(NC(=O)C3CC3)nc3[nH]ccc23)C(F)C1 (centres unmarked) [Example 656, tert-butyl 4-(6-(cyclopropanecarboxamido)-1H-pyrrolo[2,3-b]pyridin-4-yl)-3-fluoropiperidine-1-carboxylate]
The IC50 of the first is lower: less than 20 nM for the first, greater than 200 nM for the second.
